From US4158018A, “3-Oxa carbinol prostaglandin analogs” (Miles Laboratories, Inc., priority 1978, dated 1979)

Columns and labels:
Hypertensive Rat = assay: Effects on blood pressure in the hypertensive rat (Grollman); format: in vivo; parameters: key: 0: Not significant at any time interval; 1: Significant at one time interval; 2: Significant at two time intervals; 3: Significant at three time intervals; 4: Significant at all four time intervals; details: intraperitoneal, 1 mc/kg; 2, 4, 6 and 8 hours
Method: Evaluation of the Effects of Prostaglandin Analogues on Blood Pressure in the Hypertensive Rat
The acute antihypertensive activity of test compounds is determined in rats made hypertensive by the procedure of Grollman (1944). Female rats weighing between 60 and 100 g are anesthetized with ether, the right kidney approached through a flank retroperitoneal incision, decapsulated and tied with a figure-of-eight ligature. The animals are left to recover and two weeks later are again anesthetized and the contralateral kidney removed. Four weeks after the second operation the rats are subjected to indirect blood pressure measurements and those showing systolic pressure values greater than 160 mmHg are selected for drug testing.
Blood pressure is measured in the tail with an inflatable occluding cuff placed at the base of the extremity and a pulse detector located distally. The cuff is inflated to approximately 300 mmHg and is slowly deflated until pulsations appear, indicating the level of systolic pressure; diastolic pressure is not recorded by this procedure. All measurements are carried out in unanesthetized, unsedated animals maintained in a warm environment during the recording procedure and for at least 6 hours before. In all cases, three pressure readings are obtained in succession and mean values are calculated thereof.
Experiments are carried out in groups of five hypertensive rats in which systolic pressure is determined immediately before and 2, 4, 6 and 8 hours after the intraperitoneal administration of the test compound at a dose of 1 mc/kg. Drugs are diluted from stock solutions with phosphate buffer (Lee et al, 1973), so as to inject this quantity in a volume of 1 ml/kg. Changes from control blood pressure values are calculated for each interval both in mmHg and in percent and evaluated for significance by means of Wilcoxon's signed rank test (Wilcoxon and Wilcox, 1964).

[1] = test system: Gastric Secretion of the Rat; assay: Effects on gastric secretion of the rat (pylorus ligated); format: in vivo; details: for Gastric Secretion (value judgement, % decrease in acidity): subcutaneous, 2 x 1.5 mg/kg (total 3.0 mg/kg), 4 hours after pyloric ligation
Method: Evaluation of the Effects of Prostaglandin Analogues on Gastric Secretion of the Rat
A procedure based on that described by Lipmann (1969) is used to assess the influence of test compound on gastric secretion. Rats of one sex weighing 150 to 200 gm are randomly divided into groups of six animals each and fasted for 48 hours previous to the experiments, water being available ad libitum. The animals are anesthetized with ether, the abdomen opened through a midline incision, and the pylorus ligated. Test compounds are diluted from stock solution so as to administer a dose of 1.5 mg/kg in a volume equivalent to 1 ml/kg. Subcutaneous injections are applied immediately after surgery and again 2 hours later, so that a total dose of 3.0 mg/kg is administered. Dilutions are made with phosphate buffer (pH 7.38) as recommended by Lee et al (1973), in order to insure adequate stability of drugs at the subcutaneous depot. Each compound is tested in one group of rats; an additional control group received only one vehicle.
Four hours after pyloric ligation the animals are killed with ether, the cardias ligated and the stomachs removed. The volume of gastric secretion is measured and the contents centrifuged at 5000 rpm for 10 minutes. Total acid in the supernatant is titrated against a 0.1 N sodium hydroxide solution and the amount expressed in mEq.
Volume and total acid values of the treated group are compared with those of the controls by the test. Antisecretory activity is scored according to the following scale: […]

[2] = test system: smooth muscle of the vas deferens; details: mammalian male reproductive system; cited from earlier work
adrenal glands = details: hypophysectomized rats; cited from earlier work
blood platelets = details: in vitro; cited from earlier work
thyroid activity = details: mice; cited from earlier work
growth hormone release = details: rats; cited from earlier work
gastric secretion = details: dogs; cited from earlier work
[3] = test system: ovarian progesterone secretion; details: sheep; cited from earlier work

CCCCC(C)(C)[C@@H](O)/C=C/[C@H]1[C@H](O)CC(=O)[C@@H]1CCCCOCCO (relative stereo) [TR-4617, ±16,16-dimethyl-3-oxa-1,11α,15R and S-trihydroxyprost-13E-en-9-one]
Blood Pressure Hypertensive Rat (value judgement, blood pressure decrease) (Hypertensive Rat): 1
Gastric Secretion (value judgement, % decrease in acidity) [1]: 0 (<26)

16,20-methano-oxa-1,11β,15R-trihydroxy- 8,12-bisisoprost-13E-en-9-one [TR-4853]
Gastric Secretion (value judgement, % decrease in acidity) [1]: 0 (<26)

CCCCC(C)(C)[C@H](O)/C=C/[C@H]1[C@H](O)CC(=O)[C@@H]1CCCCOCCO (relative stereo) [TR-4616, ±16,16-dimethyl-3-oxa-1,11α,15R and S-trihydroxyprost-13E-en-9-one]
Blood Pressure Hypertensive Rat (value judgement, blood pressure decrease) (Hypertensive Rat): 0
inhibition of gastric acid secretion (in words) ([1]; rat, in vivo): inhibit gastric acid secretion
Gastric Secretion (value judgement, % decrease in acidity) [1]: 2 (26-50, significant)

O=C1CC(O)C(/C=C/[C@H](O)C2CCCCC2)C1CCCCOCCO (stereo partly drawn) [TR-4856, 16,20-methano-3-oxa-1,11α,15R-trihydroxyprost-13E-en-9-one]
Blood Pressure Hypertensive Rat (value judgement, blood pressure decrease) (Hypertensive Rat): 2
Gastric Secretion (value judgement, % decrease in acidity) [1]: 0 (<26)

CCCCC[C@H](O)/C=C/[C@H]1[C@H](CCCCOCCO)C(=O)C[C@@H]1O [TR-4649, 3-oxa-1,11β,15S-trihydroxy-8,12-bisisoprost-13E-en-9-one]
Gastric Secretion (value judgement, % decrease in acidity) [1]: 0 (<26)

CCCCC[C@H](O)/C=C/[C@H]1[C@H](O)CC(=O)[C@@H]1CCCCCCC(=O)O [PGE1, prostaglandin E1]
contraction of smooth muscle of the vas deferens [2]: contracts the smooth muscle of the vas deferens
stereodogenesis in the adrenal glands (adrenal glands): stimulate stereodogenesis in the adrenal glands
aggregation of blood platelets (blood platelets): inhibits aggregation of blood platelets in vitro
thyroid activity (thyroid activity): increase thyroid activity
release of growth hormone (growth hormone release): increases the release of growth hormone
gastric secretion (gastric secretion): inhibits gastric secretion
ovarian progesterone secretion [3]: inhibit ovarian progesterone secretion

CCCCC[C@H](O)/C=C/[C@H]1[C@H](O)CC(=O)[C@@H]1CCCCOCCO [TR-4650, 3-oxa-1,11α,15S-trihydroxyprost-13E-en-9-one]
Blood Pressure Hypertensive Rat (value judgement, blood pressure decrease) (Hypertensive Rat): 1
Gastric Secretion (value judgement, % decrease in acidity) [1]: 0 (<26)
